For orientation: IC50 means the concentration that inhibits the measured activity by half. A low value points to higher potency.

One test deals with A549. Briefly: Antiproliferative activity against human A549 cells measured after 72 hrs by MTT assay. Format: functional, cell-based. Conditions: A549, 72 h. (Tetrazolium assays rely on reduction of a dye to a coloured formazan, in cell work by metabolically active cells.)
The test system of another test is NCI-H2228. Briefly: Antiproliferative activity against human NCI-H2228 cells measured after 72 hrs by MTT assay. To be noted: NCI-H2228, 72 h. The format is functional, cell-based.
In a further test the test system is MDA-MB-231. Briefly: Antiproliferative activity against human MDA-MB-231 cells measured after 72 hrs by MTT assay. The format is functional, cell-based. Conditions: MDA-MB-231, 72 h.
The subject of the next test is MCF7. Briefly: Antiproliferative activity against human MCF7 cells measured after 72 hrs by MTT assay. The format is functional, cell-based. Conditions: MCF7, 72 h.
The target of a further test is Autotaxin (Homo sapiens, UniProt Q13822). Briefly: Inhibition of human C-terminal His6-tagged ATX beta expressed in Sf9 insect cells using FS-3 as substrate preincubated for 45 mins followed by substrate addition and measured at 1 min interval for 30 mins by fluorescence assay.

As for `O=C(CCN1CCN(C(=O)OCc2cc(Cl)cc(Cl)c2)CC1)c1ccc2[nH]c(=O)oc2c1`, the IC50 in the test on A549 amounted to 8.21 µM; in the test with NCI-H2228, 11.3 µM; in the test with MDA-MB-231, 4.17 µM; in the test on MCF7 it was 2.31 µM.
Take `CCn1cc(/C(=N/Nc2nc(-c3ccc(OC)cc3)c(C#N)s2)C(F)(F)F)c2cc(-c3nc(CN4CCOCC4)cs3)ccc21`: the IC50 in the test with A549 was over 15 µM; with MDA-MB-231 it was 5.12 µM; against Autotaxin, 2.06 µM.
`CCn1cc(/C(=N/Nc2nc(-c3ccc(F)cc3)c(C#N)s2)C(F)(F)F)c2cc(-c3nc(CN4CCC(O)CC4)cs3)ccc21`: the figures for the IC50 in the test on A549, against Autotaxin and in the test with MCF7 were 10.3 µM, 2.05 µM and 5.13 µM, respectively.
Take `CCN1CCN(Cc2csc(-c3ccc4c(c3)c(/C(=N/Nc3nc(-c5ccc(Cl)cc5)c(C#N)s3)C(F)(F)F)cn4CC)n2)CC1`: the IC50 in the test with A549 was 13.8 µM; in the test with NCI-H2228, over 15 µM; with MDA-MB-231, 3.21 µM; on Autotaxin it was 2.13 µM; in the test with MCF7, 5.73 µM.
As to `CCn1cc(/C(=N/Nc2nc(-c3ccc(OC)cc3)c(C#N)s2)C(F)(F)F)c2cc(-c3nc(CN4CCC(C)CC4)cs3)ccc21`, the figures for the 50% inhibitory concentration (IC50) with A549, on Autotaxin and with MCF7 were 9.81 µM, over 10 µM and 2.23 µM, respectively.
As for `CCn1cc(/C(=N/Nc2nc3ccccc3s2)C(F)(F)F)c2cc(-c3nc(CN4CCCC4)cs3)ccc21`, the IC50 came to 8.01 µM in the test with A549, 6.31 µM in the test on NCI-H2228, 0.126 µM against Autotaxin and 1.79 µM in the test with MCF7.
In the case of `CCN1CCN(Cc2csc(-c3ccc4c(c3)c(/C(=N/Nc3nc(-c5ccc(F)cc5)c(C#N)s3)C(F)(F)F)cn4CC)n2)CC1`, the IC50 in the test with A549 was over 15 µM; in the test on MDA-MB-231, 2.69 µM; at Autotaxin, 1.54 µM; in the test on MCF7 it was 4.33 µM.
For `CCn1cc(/C(=N/Nc2nc(-c3ccc(F)cc3)c(C#N)s2)C(F)(F)F)c2cc(-c3nc(CN4CCN(CCO)CC4)cs3)ccc21`, the IC50 with A549 is 7.31 µM; with NCI-H2228 it was over 15 µM; against Autotaxin, 0.78 µM; in the test on MCF7 it was 3.25 µM.
For `CCn1cc(/C(=N/Nc2nc(-c3ccc(OC)cc3)c(C#N)s2)C(F)(F)F)c2cc(-c3nc(CN4CCC(O)CC4)cs3)ccc21`, the IC50 in the test on NCI-H2228 is over 15 µM; with MDA-MB-231, 3.98 µM; at Autotaxin, 0.56 µM; in the test with MCF7 it was 1.37 µM.
As for `CCn1cc(/C(=N/Nc2nc(-c3ccc(Cl)cc3)c(C#N)s2)C(F)(F)F)c2cc(-c3nc(CN4CCC(O)CC4)cs3)ccc21`, the values for the IC50 in the test with A549, with MDA-MB-231 and against Autotaxin were over 15 µM, 2.33 µM and 1.43 µM, respectively.
For `CCn1cc(/C(=N/Nc2nc(-c3ccc(F)cc3)c(C#N)s2)C(F)(F)F)c2cc(-c3nc(CN4CCC[C@H]4CO)cs3)ccc21`, the IC50 against Autotaxin amounted to 5.27 µM.
Turning to `Cc1[nH]c2cc(F)c(N3CCC(C(=O)N4CCOCC4)CC3)cc2c1/C=N/Nc1nc(-c2ccc(F)cc2)c(C#N)s1`, the IC50 in the test on NCI-H2228 is over 15 µM; in the test with MDA-MB-231, 3.67 µM; on Autotaxin it was 0.104 µM; in the test on MCF7, 1.67 µM.
In the case of `CCN1CCN(Cc2csc(-c3ccc4c(c3)c(/C(=N/Nc3nc(-c5ccc(OC)cc5)c(C#N)s3)C(F)(F)F)cn4CC)n2)CC1`, the figures for the IC50 with A549, against Autotaxin and in the test with MCF7 were over 15 µM, 0.93 µM and 4.67 µM, respectively.
For the molecule `CCn1cc(/C(=N/Nc2nc(-c3ccc(OC)cc3)c(C#N)s2)C(F)(F)F)c2cc(-c3nc(CN4CCC[C@H]4C(=O)O)cs3)ccc21`, the IC50 in the test with A549 was over 15 µM; in the test with MDA-MB-231 it was 1.23 µM; against Autotaxin, 0.98 µM; in the test with MCF7 it was 1.51 µM.
Turning to `CCn1cc(/C(=N/Nc2nc(-c3ccc(Cl)cc3)c(C#N)s2)C(F)(F)F)c2cc(-c3nc(CN4CCC[C@H]4CO)cs3)ccc21`, the results for the IC50 with NCI-H2228, in the test with MDA-MB-231 and at Autotaxin were over 15 µM, 1.21 µM and 1.41 µM, respectively.
As to `CCn1cc(/C(=N/Nc2nc3ccccc3s2)C(F)(F)F)c2cc(-c3nc(CN4CCOCC4)cs3)ccc21`, the IC50 with A549 came to 9.37 µM; in the test with MDA-MB-231, 7.3 µM; against Autotaxin, 0.201 µM; with MCF7, 2.73 µM.
Turning to `CCn1cc(/C(=N/Nc2nc(-c3ccc(Cl)cc3)c(C#N)s2)C(F)(F)F)c2cc(-c3nc(CN4CCCC4)cs3)ccc21`, the IC50 was over 15 µM in the test with A549, 1.56 µM with MDA-MB-231, 2.45 µM on Autotaxin and 5.03 µM in the test with MCF7.
The like results for `CCn1cc(/C(=N/Nc2nc3ccccc3s2)C(F)(F)F)c2cc(-c3nc(CN4CCC[C@H]4C(=O)O)cs3)ccc21` were, in that order, over 15 µM, 3.49 µM, 0.072 µM and 1.92 µM.
On to `CCN1CCN(C(=O)C2CCN(c3cc4c(/C=N/Nc5nc(-c6ccc(F)cc6)c(C#N)s5)c(C)[nH]c4cc3F)CC2)CC1`, for which the IC50 with A549 was over 15 µM; in the test with MDA-MB-231, 1.14 µM; against Autotaxin, 0.159 µM.
For `CCn1cc(/C(=N/Nc2nc(-c3ccc(OC)cc3)c(C#N)s2)C(F)(F)F)c2cc(-c3nc(CN4CCN(C)CC4)cs3)ccc21`, the IC50 in the test with A549 came to 4.93 µM; with NCI-H2228, 2.6 µM; in the test with MDA-MB-231, 8.21 µM; against Autotaxin, 1.85 µM; with MCF7 it was 2.79 µM.
The like results for `CCn1cc(/C(=N/Nc2nc(-c3ccc(F)cc3)c(C#N)s2)C(F)(F)F)c2cc(-c3nc(CN4CCOCC4)cs3)ccc21` were, in that order, over 15 µM, over 15 µM, 4.97 µM, 2.37 µM and 2.31 µM.
For the molecule `CCn1cc(/C(=N/Nc2nc(-c3ccc(F)cc3)c(C#N)s2)C(F)(F)F)c2cc(-c3nc(CN4CC(O)C4)cs3)ccc21`, the IC50 with A549 is 6.92 µM; at Autotaxin, 1.25 µM; with MCF7, 1.79 µM.
The matching figures for `CCn1cc(/C(=N/Nc2nc(-c3ccc(F)cc3)c(C#N)s2)C(F)(F)F)c2cc(-c3nc(CN4CCN(C)CC4)cs3)ccc21`: 11.7 µM, 3.02 µM and 2.1 µM.
Regarding `CCn1cc(/C(=N/Nc2nc(-c3ccc(OC)cc3)c(C#N)s2)C(F)(F)F)c2cc(-c3nc(CN4CCC[C@H]4CO)cs3)ccc21`, the IC50 with A549 stood at 10.9 µM; against Autotaxin, 0.87 µM; with MCF7, 4.26 µM.
`CCn1cc(/C(=N/Nc2nc(-c3ccc(F)cc3)c(C#N)s2)C(F)(F)F)c2cc(-c3nc(CN4CCCCC4)cs3)ccc21`: the IC50 is over 15 µM in the test with A549; 5.71 µM in the test with NCI-H2228; 5.46 µM with MDA-MB-231; 3.43 µM against Autotaxin; 1.57 µM in the test on MCF7.
With `CCn1cc(/C(=N/Nc2nc3ccccc3s2)C(F)(F)F)c2cc(-c3nc(CN4CCC(C)CC4)cs3)ccc21`, the values for the IC50 with NCI-H2228, in the test on MDA-MB-231 and against Autotaxin were over 15 µM, 2.08 µM and 0.337 µM, respectively.
Turning to `Cc1[nH]c2cc(F)c(N3CCC(C(=O)N4CCCC4)CC3)cc2c1/C(=N/Nc1nc(-c2ccc(F)cc2)c(C#N)s1)C(F)(F)F`, the IC50 is 9.07 µM in the test with A549, over 15 µM in the test on NCI-H2228, 0.057 µM against Autotaxin and 0.75 µM in the test on MCF7.
As to `CCn1cc(/C(=N/Nc2nc(-c3ccc(OC)cc3)c(C#N)s2)C(F)(F)F)c2cc(-c3nc(CN4CCCC4)cs3)ccc21`, the IC50 in the test on A549 is 13.7 µM; in the test with NCI-H2228, over 15 µM; in the test with MDA-MB-231, 5.17 µM; against Autotaxin, 3.05 µM.
Turning to `CCn1cc(/C(=N/Nc2nc(-c3ccc(OC)cc3)c(C#N)s2)C(F)(F)F)c2cc(-c3nc(CN4CC(O)C4)cs3)ccc21`, the IC50 in the test on A549 was over 15 µM; with NCI-H2228 it was over 15 µM; in the test with MDA-MB-231, 2.43 µM; at Autotaxin it was 0.91 µM; in the test with MCF7, over 15 µM.
Molecule `CCn1cc(/C(=N/Nc2nc(-c3ccc(Cl)cc3)c(C#N)s2)C(F)(F)F)c2cc(-c3nc(CN4CCCCC4)cs3)ccc21` displayed an IC50 against Autotaxin of 6.07 µM.
Take `CCn1cc(/C(=N/Nc2nc(-c3ccc(F)cc3)c(C#N)s2)C(F)(F)F)c2cc(-c3nc(CN4CCC[C@H]4C(=O)O)cs3)ccc21`: the IC50 is over 15 µM with A549; over 15 µM with NCI-H2228; 1.27 µM with MDA-MB-231; 0.61 µM against Autotaxin; 0.65 µM in the test on MCF7.
On to `CCn1cc(/C(=N/Nc2nc(-c3ccc(Cl)cc3)c(C#N)s2)C(F)(F)F)c2cc(-c3nc(CN4CCN(C)CC4)cs3)ccc21`, for which the IC50 in the test on NCI-H2228 was over 15 µM; in the test on MDA-MB-231 it was 1.56 µM; at Autotaxin it was 1.21 µM.
Take `CCn1cc(/C(=N/Nc2nc(-c3ccc(Cl)cc3)c(C#N)s2)C(F)(F)F)c2cc(-c3nc(CN4CC(O)C4)cs3)ccc21`: the IC50 is over 15 µM in the test on NCI-H2228, 3.41 µM in the test on MDA-MB-231, 2.46 µM against Autotaxin and over 15 µM with MCF7.
With `CCn1cc(/C(=N/Nc2nc(-c3ccc(Cl)cc3)c(C#N)s2)C(F)(F)F)c2cc(-c3nc(CN4CCC(C)CC4)cs3)ccc21`, the IC50 on Autotaxin was found to be 4.21 µM.
Consider `CCn1cc(/C(=N/Nc2nc3ccccc3s2)C(F)(F)F)c2cc(-c3nc(CN4CCCCC4)cs3)ccc21`, for which the IC50 in the test on A549 was over 15 µM; in the test with NCI-H2228 it was 7.93 µM; against Autotaxin, 0.107 µM; in the test on MCF7 it was 3.12 µM.
On to `CCn1cc(/C(=N/Nc2nc3ccccc3s2)C(F)(F)F)c2cc(-c3nc(CN4CCN(C)CC4)cs3)ccc21`, for which the IC50 was 7.43 µM in the test with A549; 8.51 µM in the test on NCI-H2228; 1.45 µM with MDA-MB-231; 0.116 µM against Autotaxin; 2.78 µM in the test with MCF7.
For the molecule `CCn1cc(/C(=N/Nc2nc(-c3ccc(F)cc3)c(C#N)s2)C(F)(F)F)c2cc(-c3nc(CN4CCCC4)cs3)ccc21`, the IC50 in the test with A549 is over 15 µM; in the test with NCI-H2228, 6.31 µM; in the test with MDA-MB-231 it was 2.37 µM; against Autotaxin, 1.31 µM; in the test on MCF7 it was 2.85 µM.
In the case of `CCc1nc2c(C)cc(N3CCN(CC(=O)N4CC(O)C4)CC3)cn2c1N(C)c1nc(-c2ccc(F)cc2)c(C#N)s1` [ZIRITAXESTAT], the IC50 in the test with A549 was over 15 µM; with NCI-H2228, over 15 µM; in the test with MDA-MB-231, 6.27 µM; with MCF7, 8.32 µM.
